From patent publication US20240384268A1, “Oligonucleotides” (Hudson Institute of Medical Research, priority 2021, published 2024) come the findings set out here.

In the oligonucleotide strings, read from the 5' end, every base follows the letter of its sugar. An asterisk marks phosphorothioate; unmarked linkages are phosphodiester. Other units and linkages are bracketed, terminal groups are in braces. A string of capitals states the bases alone. d = 2'-deoxy (DNA); m = 2'-O-methyl

For this series, the target named is cGAS (Homo sapiens, UniProt Q8N884). As to the kind of experiment: ISD70-driven IP-10 (and IFN-β) production in THP-1 cells, ELISA. Type of series: cell-based. Further details: endogenous in cells; host or cells: THP-1 (undifferentiated). The conditions noted are these: for cGAS-100 nM: averaged IP-10 levels relative to ISD70: 100 nM ASO overnight, then ISD70 2.5 μg/ml 7-8 h, percentage of ISD70 only; for cGAS 100 nM: MOE-modified ASO at 100 nM, averaged IP-10 levels relative to ISD70 condition.
Sequence of cGAS (Q8N884 whole entry): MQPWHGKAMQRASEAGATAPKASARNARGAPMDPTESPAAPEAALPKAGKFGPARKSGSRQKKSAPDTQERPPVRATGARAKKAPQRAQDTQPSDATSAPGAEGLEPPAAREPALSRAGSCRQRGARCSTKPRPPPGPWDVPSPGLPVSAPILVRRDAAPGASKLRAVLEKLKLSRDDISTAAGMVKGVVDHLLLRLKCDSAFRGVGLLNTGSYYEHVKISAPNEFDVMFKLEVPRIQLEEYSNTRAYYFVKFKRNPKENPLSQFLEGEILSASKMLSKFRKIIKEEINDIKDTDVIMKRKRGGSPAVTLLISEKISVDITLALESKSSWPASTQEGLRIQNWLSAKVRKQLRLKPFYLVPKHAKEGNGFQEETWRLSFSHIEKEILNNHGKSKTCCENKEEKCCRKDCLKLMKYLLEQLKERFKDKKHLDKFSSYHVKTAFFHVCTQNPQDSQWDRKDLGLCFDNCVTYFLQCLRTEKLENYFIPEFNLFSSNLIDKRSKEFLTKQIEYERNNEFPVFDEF

As to “mU*mG*mG*mC*mG*T*A*G*T*T*T*C*T*C*T*mU*mC*mC*mU*mC (mU*mG*mG*mC*mG*dT*dA*dG*dT*dT*dT*dC*dT*dC*dT*mU*mC*mC*mU*mC; antisense) [[LINC-PINT]937.1]”, the “cGAS-100 nM: averaged IP-10 levels relative to ISD70” value (THP-1) was 70.97%.
Same read-out and setting: the same measure for “mC*mA*mC*mC*mC*T*T*C*T*C*T*C*T*G*G*mU*mC*mC*mC*mA (CACCCTTCTCTCTGGUCCCA; antisense; sugars from the 5' end m5 d10 m5, all phosphorothioate, methylation of C not given here) [[LINC-PINT]116]”: 97.19%; for “mA*mA*mA*mU*mG*T*C*C*T*G*G*C*C*C*T*mC*mA*mC*mU*mG (mA*mA*mA*mU*mG*dT*dC*dC*dT*dG*dG*dC*dC*dC*dT*mC*mA*mC*mU*mG) [[LINC-PINT]148.1]”: 66.46%.
Still for that read-out and setting: the figure for “mG*mU*mC*mU*mC*C*T*C*C*A*C*A*C*C*C*mU*mU*mC*mU*mC (mG*mU*mC*mU*mC*dC*dT*dC*dC*dA*dC*dA*dC*dC*dC*mU*mU*mC*mU*mC; antisense) [[LINC-PINT]126]” is 114.36%; for “mG*mU*mU*mC*mA*G*T*C*A*G*A*T*C*G*C*mU*mG*mG*mG*mA (mG*mU*mU*mC*mA*dG*dT*dC*dA*dG*dA*dT*dC*dG*dC*mU*mG*mG*mG*mA) [[LINC-PINT]412 KL]” it is 93.74%.
For the substance “mC*mA*mG*mG*mC*C*T*C*C*A*G*T*G*T*C*mU*mU*mC*mU*mC (mC*mA*mG*mG*mC*dC*dT*dC*dC*dA*dG*dT*dG*dT*dC*mU*mU*mC*mU*mC; antisense) [[CDKN2B-AS1]2219]”, for the setting “THP-1”, the “cGAS-100 nM: averaged IP-10 levels relative to ISD70” value is reported as 99.38%.
The same measure, in the same setting: the same measure for “mA*mA*mA*mG*mA*T*T*A*T*C*T*T*C*T*T*mU*mU*mA*mA*mU (mA*mA*mA*mG*mA*dT*dT*dA*dT*dC*dT*dT*dC*dT*dT*mU*mU*mA*mA*mU) [[CDKN2B-AS1]2132]”: 74.59%.
The same measure, in the same setting: the same measure for “mC*mA*mC*mU*mG*T*A*T*T*T*T*A*T*T*A*mC*mA*mG*mA*mA (mC*mA*mC*mU*mG*dT*dA*dT*dT*dT*dT*dA*dT*dT*dA*mC*mA*mG*mA*mA; antisense) [[LINC-PINT]2990]”: 69.47%.
On to “GTCCAAGATCAGCAGTCTCA (antisense; 2'-MOE modified, pattern not given here) [CTNN2B-2341 MOE]”, for which the “cGAS 100 nM” value was 0.705.
Still for that read-out and setting: the figure for “GGTTTTGGCTGGGATCAAGT (antisense; 2'-MOE modified, pattern not given here) [CAMSAP1-4697 MOE]” is 0.375.
As for “mU*mG*mA*mU*mG*A*T*G*C*T*T*G*C*A*G*mG*mA*mG*mG*mC (mU*mG*mA*mU*mG*dA*dT*dG*dC*dT*dT*dG*dC*dA*dG*mG*mA*mG*mG*mC) [[LINC-PINT|283.1]”, the “cGAS-100 nM: averaged IP-10 levels relative to ISD70” value (THP-1) stood at 85.85%.
On the same count and under the same terms, the figure for “mU*mU*mG*mU*mG*A*A*A*A*G*A*T*T*A*T*mC*mU*mU*mC*mU (mU*mU*mG*mU*mG*dA*dA*dA*dA*dG*dA*dT*dT*dA*dT*mC*mU*mU*mC*mU) [[CDKN2B-AS1]2138]” is 69.36%; for “mG*mG*mG*mU*mC*T*C*C*T*C*C*A*C*A*C*mC*mC*mU*mU*mC (GGGUCTCCTCCACACCCUUC; antisense; sugars from the 5' end m5 d10 m5, all phosphorothioate, methylation of C not given here) [[LINC-PINT]128]” it is 37.83%.
As for “TTTGCACACTTCGTACCCAA (antisense; 2'-MOE modified, pattern not given here) [CAMSAP1-4916 MOE]”, the “cGAS 100 nM” value is recorded as 0.335.
Same read-out and setting: the same measure for “GGGTATCGAAAGAGTCTGGA (antisense; 2'-MOE modified, pattern not given here) [EGFR-3908 MOE]”: 0.427.
Consider “mG*mU*mC*mA*mA*A*C*C*T*A*G*A*A*A*G*mA*mA*mG*mC*mA (mG*mU*mC*mA*mA*dA*dC*dC*dT*dA*dG*dA*dA*dA*dG*mA*mA*mG*mC*mA; antisense) [[CDKN2B-AS1]1528]”, for which, under “THP-1”, the “cGAS-100 nM: averaged IP-10 levels relative to ISD70” value was 68.94%.
The same measure, in the same setting: the same measure for “mG*mG*mU*mC*mU*C*C*T*C*C*A*C*A*C*C*mC*mU*mU*mC*mU (mG*mG*mU*mC*mU*dC*dC*dT*dC*dC*dA*dC*dA*dC*dC*mC*mU*mU*mC*mU; antisense) [[LINC-PINT]127]”: 36.95%; for “mG*mA*mA*mA*mA*G*A*T*T*A*T*C*T*T*C*mU*mU*mU*mU*mA (GAAAAGATTATCTTCUUUUA; sugars from the 5' end m5 d10 m5, all phosphorothioate, methylation of C not given here) [[CDKN2B-AS1]2134]”: 51.49%.
Still for that read-out and setting: the figure for “mU*mC*mU*mC*mU*G*G*T*C*C*C*A*T*C*C*mC*mU*mU*mC*mU (UCUCUGGTCCCATCCCUUCU; antisense; sugars from the 5' end m5 d10 m5, all phosphorothioate, methylation of C not given here) [[LINC-PINT]108]” is 104.65%.
With “mC*mU*mU*mC*mU*C*T*C*T*G*G*T*C*C*C*mA*mU*mC*mC*mC (mC*mU*mU*mC*mU*dC*dT*dC*dT*dG*dG*dT*dC*dC*dC*mA*mU*mC*mC*mC) [[LINC-PINT]112]”, the “cGAS-100 nM: averaged IP-10 levels relative to ISD70” value (THP-1) turned out to be 82.64%.
On to “mA*mC*mC*mC*mU*T*C*T*C*T*C*T*G*G*T*mC*mC*mC*mA*mU (mA*mC*mC*mC*mU*dT*dC*dT*dC*dT*dC*dT*dG*dG*dT*mC*mC*mC*mA*mU; antisense) [[LINC-PINT]115]”, for which, under “THP-1”, the “cGAS-100 nM: averaged IP-10 levels relative to ISD70” value was found to be 89.81%.
On the same count and under the same terms, the same measure for “mU*mC*mU*mC*mC*A*T*G*T*C*C*C*A*G*G*mC*mC*mU*mC*mC (mU*mC*mU*mC*mC*dA*dT*dG*dT*dC*dC*dC*dA*dG*dG*mC*mC*mU*mC*mC; antisense) [[CDKN2B-AS1]2230]”: 94.78%.
Consider “mG*mG*mU*mC*mC*C*A*T*C*C*C*T*T*C*T*mG*mC*mU*mG*mC (GGUCCCATCCCTTCTGCUGC; sugars from the 5' end m5 d10 m5, all phosphorothioate, methylation of C not given here) [[LINC-PINT]103]”, for which the “cGAS-100 nM: averaged IP-10 levels relative to ISD70” value (THP-1) stood at 45.23%. Under “THP-1, 2′OMe or PS oligos, 100-250 nM, pre-treatment as in figure legends, ISD70 2.5 μg/ml”, the “inhibition of ISD70-driven IP-10 production (in words)” value is “significantly inhibiting ISD70-driven IP-10 production”.
As to “mA*mG*mG*mC*mC*T*C*C*A*G*T*G*T*C*T*mU*mC*mU*mC*mC (mA*mG*mG*mC*mC*dT*dC*dC*dA*dG*dT*dG*dT*dC*dT*mU*mC*mU*mC*mC; antisense) [[CDKN2B-AS1]2218]”, where the note is “THP-1”, the “cGAS-100 nM: averaged IP-10 levels relative to ISD70” value is given as 62.85%.
On the same count and under the same terms, the figure for “mC*mC*mU*mU*mC*T*G*C*T*G*C*C*A*A*G*mC*mC*mC*mC*mA (mC*mC*mU*mU*mC*dT*dG*dC*dT*dG*dC*dC*dA*dA*dG*mC*mC*mC*mC*mA; antisense) [[LINC-PINT]94]” is 104.33%; for “mC*mC*mC*mU*mU*C*T*C*T*C*T*G*G*T*C*mC*mC*mA*mU*mC (mC*mC*mC*mU*mU*dC*dT*dC*dT*dC*dT*dG*dG*dT*dC*mC*mC*mA*mU*mC; antisense) [[LINC-PINT]114]” it is 84.38%; for “mC*mU*mU*mU*mA*T*A*T*T*A*C*A*A*A*G*mC*mU*mA*mC*mU (mC*mU*mU*mU*mA*dT*dA*dT*dT*dA*dC*dA*dA*dA*dG*mC*mU*mA*mC*mU; antisense) [[LINC-PINT]2755]” it is 92.54%.
Take “TGGCAGGCTCAGTGATGTCT (antisense; 2'-MOE modified, pattern not given here) [CTNN2B-1642 MOE]”: the “cGAS 100 nM” value worked out at 0.605.
For “mC*mA*mA*mG*mC*C*C*C*A*G*C*G*T*T*C*mC*mU*mC*mC*mG (mC*mA*mA*mG*mC*dC*dC*dC*dA*dG*dC*dG*dT*dT*dC*mC*mU*mC*mC*mG; antisense) [[LINC-PINT]83.1]”, under “THP-1”, the “cGAS-100 nM: averaged IP-10 levels relative to ISD70” value is 77.10%.
“mG*mU*mC*mC*mC*A*T*C*C*C*T*T*C*T*G*mC*mU*mG*mC*mC (GUCCCATCCCTTCTGCUGCC; antisense; sugars from the 5' end m5 d10 m5, all phosphorothioate, methylation of C not given here) [[LINC-PINT]102]”: the “cGAS-100 nM: averaged IP-10 levels relative to ISD70” value (THP-1) is listed as 113.87%.
Same read-out and setting: the figure for “mU*mU*mA*mG*mC*T*C*C*T*T*G*C*C*T*C*mG*mU*mU*mC*mC (mU*mU*mA*mG*mC*dT*dC*dC*dT*dT*dG*dC*dC*dT*dC*mG*mU*mU*mC*mC; antisense) [[LINC-PINT] 1222]” is 63.80%.
As to “AGTCGTAGTTGCTTCCTAAC (antisense; 2'-MOE modified, pattern not given here) [MB21D1-1181 MOE]”, the “cGAS 100 nM” value was 0.261.
In the case of “mU*mA*mA*mA*mA*T*A*A*G*G*G*G*A*A*T*mA*mG*mG*mG*mG (mU*mA*mA*mA*mA*dT*dA*dA*dG*dG*dG*dG*dA*dA*dT*mA*mG*mG*mG*mG) [[CDKN2B-AS1]80]”, the “cGAS-100 nM: averaged IP-10 levels relative to ISD70” value (THP-1) is recorded as 110.58%.
The same measure, in the same setting: the figure for “mG*mC*mG*mU*mA*G*T*T*T*C*T*C*T*T*C*mC*mU*mC*mC*mC (GCGUAGTTTCTCTTCCUCCC; sugars from the 5' end m5 d10 m5, all phosphorothioate, methylation of C not given here) [[LINC-PINT]935 KL]” is 50.62%; for “mG*mG*mA*mU*mU*A*A*A*A*C*A*G*A*T*T*mA*mA*mU*mA*mC (GGAUUAAAACAGATTAAUAC; sugars from the 5' end m5 d10 m5, all phosphorothioate, methylation of C not given here) [[CDKN2B-AS1]1774]” it is 50.11%; for “mU*mG*mA*mC*mA*A*A*A*C*A*A*T*A*A*T*mA*mA*mC*mA*mG (mU*mG*mA*mC*mA*dA*dA*dA*dC*dA*dA*dT*dA*dA*dT*mA*mA*mC*mA*mG) [[LINC-PINT]384]” it is 88.79%.
